“And” between values parts separate entries of the source, which are not always exact repeats. Equal entries are not always repeated. Where two headings read alike, the source gives them in different places.
Columns and labels:
[1] = Stability investigation by NMR spectroscopy (hydrolysis in buffer/media); type: physicochemical; details: for Hydrolysis/Stability pH 7.5: 10 mM Hepes or 10 mM Tris, pH 7.4; for Hydrolysis/Stability pH 7.5 / Hydrolysis/Stability pH 5.5: 107 mM NaCl; for Hydrolysis/Stability pH 5.5: 10 mM Mes
Source text: POMs of the globular Keggin and planar Anderson archetype and with varying charge status from -3 to -8 (Fig. 1) were selected. To offset the known [XW12O40]^n- (X = hetero-ion) hydrolysis propensity in aqueous solution, most pronounced at neutral pH, more highly charged mixed-metal derivatives (Fig. 1,lefthand side) were also included. The latter are obtained by hydrolytic removal of one W=O^4+ unit from the Keggin structure and the subsequent incorporation of an addenda metal to fill the cavity of the monolacunary intermediate. In detail, the following POM anions were studied (as acid or sodium, potassium, or tetraalkylammonium salts), see Fig. 1: [α-P^VW^VI12O40]^3- ([PW12]^3-), [α-Si^IVW^VI12O40]^4- ([SiW12]^4-), [α-Al^IIIW^VI12O40]^5- ([AlW12]^5-), [α-P^VV^VW^VI11O40]^4- ([PVW11]^4-), [α-Si^IVMo^VIW^VI11O40]^4- ([SiMoW11]^4-), [α- HAl^IIIGe^IVW^VI11O39(H2O)]^5- ([GeAlW11]^5-), [{α-P^VW^VI11O39Zr^IV(µ-OH)(H2O)}2]^8- ([(PZrW11)2]^8-), and [Al^III(OH)6Mo^VI6O18]^3- ([AlMo6]^3-). First, their long-term (24 h and longer) stability in aqueous solution (slightly acidic and neutral) was investigated by applying the active NMR nuclei in their composition (see).

CHO-K1 cells = assay: Confocal imaging of FITC-Arg8 cellular uptake; type: cell-based; details: 4 µM FITCArg8, 5 and 10 µM carrier, 1 h, fixed cells, preliminary
Procedure: For confocal microscopy experiments, CHO-K1 cells were seeded into 12-well plates (Eppendorf) at a density of 1×10^5 cells/well (per 1 mL) and incubated for 24 h in Ham's F-12 containing 10 % (v/v) fetal bovine serum at 37 °C in a 5 % CO2. The cells were washed twice with PBS, and then incubated with POMs and FITC-Arg8 (4 µM) for 1 h at 37 °C, cells were washed twice with Hank's Balanced Salt solution containing 100 µg/mL heparin, twice again with PBS and fixed with 1 mL cold 4 % paraformaldehyde for 20 min. The cells were rewashed twice with PBS and subsequently the nuclei were stained with 2 µg/mL DAPI for 10 min at room temperature before imaging. Cells were imaged by LSM 980 confocal laser scanning microscope. Images were processed with Zen 3.2 software (Zeiss).

[2] = Transport experiments in CF-loaded zwitterionic EYPC vesicles (CF fluorescence, Hill analysis); type: biochemical; details: for cargo transport in CF-loaded vesicles (qualitative): LUVs loaded with CF, added cargo; for onset for transport activity (carrier concentration): vesicles, Fig. 4
Procedure: The dry film was rehydrated with 1 mL buffer (50 mM CF, 10 mM Hepes, pH 7.4 or 50 mM CF, 10 mM Tris, pH 7.4) for 30 min at room temperature, subjected to freeze-thaw cycles (7 times) and extrusions (15 times) through a polycarbonate membrane (pore size 100 nm). Extravesicular components were removed by size exclusion chromatography (NAP-25 column Sephadex G-25 DNA grade) with 10 mM Hepes, 107 mM NaCl, pH 7.4 or 10 mM Hepes, 107 mM NaCl, pH 7.4. Phospholipid concentration was calculated by the Stewart assay. […]
Vesicles stock solutions (5-10 µL) were diluted with the corresponding buffer in a disposable plastic cuvette and gently stirred (total volume 2000 µL, final lipid concentration 13 µM). […] Fluorescence intensities were normalized to fractional emission as: I(t) = (It −I0)/(I∞ −I0) [formula]
Where I0 = It before POM addition and […] = I∞ after lysis. For Hill analysis, It before lysis was defined as transport activity, Y, and plotted against POM concentration, c, and fitted to the Hill equation (2), to afford the activity in absence of POM, Y0, the maximal activity, Ymax, the concentration needed to achieve 50 % of maximal activity, EC50, and the Hill coefficient, n. Y = Y0 + (Ymax −Y0)/(1 + (((EC50)/(c)))^n) [formula]
In the transport measurements, where different carriers (POMs) are tested with the same cargo, the activator efficiency (E) is determined by their capacity to transport the impermeable cargo to the intravesicular region and is characterized by Ymax, its maximal activity, and EC50, the effective activator concentration. An ideal carrier reaches high Ymax at low EC50. To count both factors, the activator efficiency is defined as: E = Ymax (pEC50)/(f) [formula] were pEC50 is the negative logarithm of the EC50, and fa scaling factor, which was set to 20.6 to calibrate the highest (previously known) activation efficiency, E, as 10.
The capability of POMs to act as membrane carriers was explored first in large unilamellar vesicles (LUVs), loaded with carboxyfluorescein (CF). We selected […] representative cationic peptides, heptaarginine (heptaArg), heptalysine (heptaLys), protamine, and polyarginine (polyArg), as test cargos. Inside the LUVs, the CF dye was encapsulated at self-quenching concentrations. With a suitable carrier, heptaArg can be taken up into the vesicles, bind with entrapped CF, and shuttle back to the exterior, spreading the previously quenched CF, and thereby restoring its fluorescence (Fig. 3). In the time-resolved fluorescence experiments, to test whether a POM acts as molecular carrier, the CF emission was continuously monitored during the addition of the inorganic carrier (t = 60 s) and after injection the impermeable heptaArg (t = 120 s). At the end of the experiment (t = 600 s), the surfactant Triton X-100 was added to release all the entrapped CF and allow normalization of the intensity data (Fig. 4a).

[3] = Nutrient mixture F-12 Ham after incubation for 1 h at 37 °C
[4] = EYPC (zwitterionic), 13 µM phospholipids, 10 µM heptaLys
[5] = EYPC (zwitterionic), 13 µM phospholipids, 10 µM heptaLys, read-out: EC50
[6] = EYPC vesicles, 0.1 µM polyArg, neutral pH 7.4
[7] = EYPC vesicles, 0.1 µM polyArg, neutral pH 7.4, read-out: PolyArg EC50
[8] = EYPC vesicles, 1 µM protamine, neutral pH 7.4
[9] = EYPC vesicles, 1 µM protamine, neutral pH 7.4, read-out: Protamine EC50
[10] = EYPC vesicles, 10 µM heptaArg, neutral pH 7.4, E = Ymax(pEC50/f), f = 20.6
[11] = EYPC vesicles, 10 µM heptaArg, neutral pH 7.4, read-out: HeptaArg EC50
[12] = EYPC vesicles, 0.1 µM polyArg, acidic pH 5.5
[13] = EYPC vesicles, 1 µM Protamine, acidic pH 5.5

Hydrolysis/Stability pH 5.5 [1]	EC50 [2, 5] [µM]	EC50 [2, 7] [µM]	EC50 [2, 9] [µM]	EC50 [2, 11]	Substance	Hydrolysis/Stability pH 7.5 [1]	POM anions with % for parent (active) anion based on signals integration [1, 3]	FITCArg8 uptake (confocal fluorescence microscopy) (CHO-K1 cells)	E (activation efficiency) [2, 4]	Ymax [2, 4] [%]	PolyArg E (activation efficiency) [2, 6]	PolyArg Ymax [2, 6] [%]	Protamine E (activation efficiency) [2, 8]	Protamine Ymax [2, 8] [%]	HeptaArg E (activation efficiency) [2, 10]	cargo transport in CF-loaded vesicles (qualitative) [2]	onset for transport activity (carrier concentration) [2]	other results
stable	38	12	41	49 µM	K4[α-P^VV^VW^VI11O40]·4H2O [[PVW11]^4-]	20 % to [P^VW^VI11O39]^7- and 20 % hydrolyzed to [P^VW^VI11O39]^7	[P^VW^VI11O39]^7- (coordinated to different alkali and earth alkali metals leading to different shifts) and [P^VV^VW^VI11O40]^4- (16 %)	strong diffuse fluorescence	4.3	62	8.2	88	5.9	88	5.3	triggered the desired increase in fluorescence characteristic for cargo transport	around 1 µM	POM anions with % for parent (active) anion based on signals integration ([1]; D2O): [P^VV^VW^VI11O40]^4-; % of hydrolysis product [P^VW^VI11O39]^7- based on signals integration ([1]; Mes pH 5.5 after 1 day): 1%; POM anions with % for parent (active) anion based on signals integration ([1]; Mes pH 5.5 after 1 day): 99%; % of hydrolysis product [P^VW^VI11O39]^7- based on signals integration ([1]; Mes pH 5.5 after 5 days): 1%; POM anions with % for parent (active) anion based on signals integration ([1]; Mes pH 5.5 after 5 days): 99%; % of hydrolysis product [P^VW^VI11O39]^7- based on signals integration ([1]; Mes pH 5.5 freshly prepared): 1%; POM anions with % for parent (active) anion based on signals integration ([1]; Mes pH 5.5 freshly prepared): 99%; POM anions with % for parent (active) anion based on signals integration ([1]; Nutrient mixture F-12 Ham freshly prepared): [P^VW^VI11O39]^7- (coordinated to different alkali and earth alkali metals leading to different shifts) and [P^VV^VW^VI11O40]^4- (43 %); POM anions with % for parent (active) anion based on signals integration ([1]; Tris-HCl pH 7.5 after 1 day): [P^VW^VI11O39]^7- and [P^VV^VW^VI11O40]^4- (71 %); POM anions with % for parent (active) anion based on signals integration ([1]; Tris-HCl pH 7.5 after 5 days): [P^VW^VI11O39]^7- and [P^VV^VW^VI11O40]^4- (68 %); POM anions with % for parent (active) anion based on signals integration ([1]; Tris-HCl pH 7.5 freshly prepared): [P^VW^VI11O39]^7- and [P^VV^VW^VI11O40]^4- (81 %); hydrolysis on long time scales at neutral pH ([1]; neutral pH, after 24 h): ca. 20%
stable	22	13	19	16.5 µM and 17 µM	K4[α-Si^IVMo^VIW^VI11O40]·24H2O [[SiMoW11]^4-]	stable	[Si^IVMo^VIW^VI11O40]^4-	strong diffuse fluorescence	4.4	54	8.6	94	6.0	72	5.7	triggered the desired increase in fluorescence characteristic for cargo transport	around 1 µM	POM anions with % for parent (active) anion based on signals integration ([1]; Mes pH 5.5 (time not given)): [Si^IVMo^VIW^VI11O40]^4-; POM anions with % for parent (active) anion based on signals integration ([1]; Tris-HCl pH 7.5 (time not given)): [Si^IVMo^VIW^VI11O40]^4-; PolyArg E (activation efficiency) [2, 12]: 9.7; PolyArg Ymax [2, 12]: 86%; EC50 ([2]; EYPC vesicles, 0.1 µM polyArg, acidic pH 5.5, read-out: PolyArg EC50): 5 µM; Protamine E (activation efficiency) [2, 13]: 7.3; Protamine Ymax [2, 13]: 80%; EC50 ([2]; EYPC vesicles, 1 µM Protamine, acidic pH 5.5, read-out: Protamine EC50): 14 µM; HeptaArg E (activation efficiency) ([2]; EYPC vesicles, 10 µM heptaArg, acidic pH 5.5): 6.6; HeptaArg Ymax ([2]; EYPC vesicles, 10 µM heptaArg, acidic pH 5.5 (10 mM Mes, 107 mM NaCl)): 66%; HeptaArg Ymax ([2]; EYPC vesicles, 10 µM heptaArg, neutral pH 7.4): 66%

— EP4483904A1, “POLYOXOMETALATES AS MEMBRANE CARRIERS” (Universität Wien, priority 2023, dated 2025)
